Source: PubChem BioAssay (NCI)
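Dose response: 5 concentrations. Exposure: 48 h. Format: 96-well plates. Endpoint: linear interpolation; highest concentration if not reached. GI50 is the concentration that inhibits growth by half. TGI: total growth inhibition.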 Where a SMILES comes first, the peptide text is derived from it. [ ]: non-standard residue; d: D form.

What was measured:
Experiment in all cases: NCI-60 cell line screen, 48 h
NCI/ADR-RES ovarian = test system: NCI/ADR-RES ovarian
SK-MEL-5 melanoma = test system: SK-MEL-5 melanoma
UACC-62 melanoma = test system: UACC-62 melanoma
RXF 393 renal = test system: RXF 393 renal
HS 578T breast = test system: HS 578T breast
IGROV1 ovarian = test system: IGROV1 ovarian
A549 NSCLC = test system: A549 NSCLC
MCF7 breast = test system: MCF7 breast
HOP-92 NSCLC = test system: HOP-92 NSCLC
HCC-2998 colon = test system: HCC-2998 colon
CAKI-1 renal = test system: CAKI-1 renal
RPMI-8226 leukemia = test system: RPMI-8226 leukemia
DU-145 prostate = test system: DU-145 prostate
SN12C renal = test system: SN12C renal
SNB-75 CNS = test system: SNB-75 CNS
TK-10 renal = test system: TK-10 renal
MDA-N = test system: MDA-N
EKVX NSCLC = test system: EKVX NSCLC
KM12 colon = test system: KM12 colon
T-47D breast = test system: T-47D breast
MOLT-4 leukemia = test system: MOLT-4 leukemia
SF-295 CNS = test system: SF-295 CNS
PC-3 prostate = test system: PC-3 prostate
ACHN renal = test system: ACHN renal
HL-60(TB) leukemia = test system: HL-60(TB) leukemia
HOP-62 NSCLC = test system: HOP-62 NSCLC
HCT-116 colon = test system: HCT-116 colon
UACC-257 melanoma = test system: UACC-257 melanoma
MALME-3M melanoma = test system: MALME-3M melanoma
SF-539 CNS = test system: SF-539 CNS
786-0 renal = test system: 786-0 renal
HCT-15 colon = test system: HCT-15 colon
MDA-MB-435 = test system: MDA-MB-435
OVCAR-8 ovarian = test system: OVCAR-8 ovarian
MDA-MB-231 breast = test system: MDA-MB-231 breast
M14 melanoma = test system: M14 melanoma
OVCAR-3 ovarian = test system: OVCAR-3 ovarian
SNB-19 CNS = test system: SNB-19 CNS
A498 renal = test system: A498 renal
SK-OV-3 ovarian = test system: SK-OV-3 ovarian
OVCAR-4 ovarian = test system: OVCAR-4 ovarian
U251 CNS = test system: U251 CNS
LOX IMVI melanoma = test system: LOX IMVI melanoma
NCI-H460 lung = test system: NCI-H460 lung
SF-268 CNS = test system: SF-268 CNS
CCRF-CEM leukemia = test system: CCRF-CEM leukemia
K-562 leukemia = test system: K-562 leukemia
COLO 205 colon = test system: COLO 205 colon
NCI-H226 lung = test system: NCI-H226 lung
NCI-H23 lung = test system: NCI-H23 lung
SK-MEL-28 melanoma = test system: SK-MEL-28 melanoma
HT29 colon = test system: HT29 colon
SW-620 colon = test system: SW-620 colon
OVCAR-5 ovarian = test system: OVCAR-5 ovarian
NCI-H522 lung = test system: NCI-H522 lung
SR leukemia = test system: SR leukemia
SK-MEL-2 melanoma = test system: SK-MEL-2 melanoma
BT-549 breast = test system: BT-549 breast
UO-31 renal = test system: UO-31 renal

## CSCC[C@H](NC(=O)[C@@H](N)CC(N)=O)C(=O)N[C@@H](Cc1c[nH]c2ccccc12)C(=O)N[C@@H](CCC(N)=O)C(=O)N[C@@H](CCC(=O)O)C(=O)N[C@H](C(=O)NCC(=O)N[C@@H](CCCCN)C(=O)N[C@H](C)C(=O)O)C(C)C (H-NMWQEVGK[dA]-OH)
NCI/ADR-RES ovarian
  TGI: > 100 µM
SK-MEL-5 melanoma
  TGI: > 100 µM
UACC-62 melanoma
  TGI: > 100 µM
RXF 393 renal
  TGI: > 100 µM
HS 578T breast
  TGI: > 100 µM
IGROV1 ovarian
  TGI: > 100 µM
A549 NSCLC
  TGI: > 100 µM
MCF7 breast
  TGI: > 100 µM
HOP-92 NSCLC
  TGI: > 100 µM
HCC-2998 colon
  TGI: > 100 µM
CAKI-1 renal
  TGI: > 100 µM
RPMI-8226 leukemia
  TGI: > 100 µM
DU-145 prostate
  TGI: > 100 µM
SN12C renal
  TGI: > 100 µM
SNB-75 CNS
  TGI: > 100 µM
TK-10 renal
  TGI: > 100 µM
MDA-N
  TGI: > 100 µM
EKVX NSCLC
  TGI: > 100 µM
KM12 colon
  TGI: > 100 µM
T-47D breast
  TGI: > 100 µM
MOLT-4 leukemia
  TGI: > 100 µM
SF-295 CNS
  TGI: > 100 µM
PC-3 prostate
  TGI: > 100 µM
ACHN renal
  TGI: > 100 µM
HL-60(TB) leukemia
  TGI: > 100 µM
HOP-62 NSCLC
  TGI: > 100 µM
HCT-116 colon
  TGI: > 100 µM
UACC-257 melanoma
  TGI: > 100 µM
MALME-3M melanoma
  TGI: > 100 µM
SF-539 CNS
  TGI: > 100 µM
786-0 renal
  TGI: > 100 µM
HCT-15 colon
  TGI: > 100 µM
MDA-MB-435
  TGI: > 100 µM
OVCAR-8 ovarian
  TGI: > 100 µM
MDA-MB-231 breast
  TGI: > 100 µM
M14 melanoma
  TGI: > 100 µM
OVCAR-3 ovarian
  TGI: > 100 µM
SNB-19 CNS
  TGI: > 100 µM
A498 renal
  TGI: > 100 µM
SK-OV-3 ovarian
  TGI: > 100 µM
OVCAR-4 ovarian
  TGI: > 100 µM
U251 CNS
  TGI: > 100 µM
LOX IMVI melanoma
  TGI: > 100 µM
NCI-H460 lung
  TGI: > 100 µM
SF-268 CNS
  TGI: > 100 µM
CCRF-CEM leukemia
  TGI: > 100 µM
K-562 leukemia
  TGI: > 100 µM
COLO 205 colon
  TGI: > 100 µM
NCI-H226 lung
  TGI: > 100 µM
NCI-H23 lung
  TGI: > 100 µM
SK-MEL-28 melanoma
  TGI: > 100 µM
HT29 colon
  TGI: > 100 µM
SW-620 colon
  TGI: > 100 µM
OVCAR-5 ovarian
  TGI: > 100 µM

## O=S(=O)(Nc1ccc(Cl)c(Cl)c1)c1ccc(-c2cnc(C3CC3)o2)cc1
NCI/ADR-RES ovarian
  GI50: 0.345 µM
  TGI: 4.91 µM
SK-MEL-5 melanoma
  GI50: 0.478 µM
  TGI: 14.6 µM
UACC-62 melanoma
  GI50: 0.433 µM
  TGI: 14.5 µM
RXF 393 renal
  GI50: 0.376 µM
  TGI: 8.44 µM
NCI-H522 lung
  GI50: 0.329 µM
  TGI: 15.1 µM
HS 578T breast
  GI50: 0.455 µM
  TGI: 30.7 µM
IGROV1 ovarian
  GI50: 0.587 µM
  TGI: 15.8 µM
A549 NSCLC
  GI50: 0.672 µM
  TGI: 17.2 µM
SR leukemia
  GI50: 0.122 µM
  TGI: 62.6 µM
SK-MEL-2 melanoma
  GI50: 2.43 µM
  TGI: 24.4 µM
MCF7 breast
  GI50: 0.289 µM
  TGI: 18.3 µM
HOP-92 NSCLC
  GI50: 0.367 µM
  TGI: 12.5 µM
BT-549 breast
  GI50: 0.911 µM
  TGI: 18.2 µM
HCC-2998 colon
  GI50: 1.81 µM
  TGI: 10.3 µM
CAKI-1 renal
  GI50: 0.384 µM
  TGI: 16.7 µM
RPMI-8226 leukemia
  GI50: 0.612 µM
  TGI: 43.5 µM
DU-145 prostate
  GI50: 0.736 µM
  TGI: 13.9 µM
SN12C renal
  GI50: 0.761 µM
  TGI: 17.3 µM
SNB-75 CNS
  GI50: 0.138 µM
  TGI: 0.558 µM
TK-10 renal
  GI50: 10.3 µM
  TGI: 36.1 µM
EKVX NSCLC
  GI50: 1.15 µM
  TGI: 30.4 µM
KM12 colon
  GI50: 0.371 µM
  TGI: 15.4 µM
T-47D breast
  GI50: 0.349 µM
  TGI: 18.6 µM
MOLT-4 leukemia
  GI50: 0.659 µM
  TGI: > 63.6 µM
SF-295 CNS
  GI50: 0.337 µM
  TGI: 11.4 µM
PC-3 prostate
  GI50: 0.474 µM
  TGI: 14.5 µM
ACHN renal
  GI50: 0.606 µM
  TGI: 30.7 µM
HL-60(TB) leukemia
  GI50: 0.274 µM
  TGI: 3.47 µM
HOP-62 NSCLC
  GI50: 0.524 µM
  TGI: 16.7 µM
HCT-116 colon
  GI50: 0.458 µM
  TGI: 13.9 µM
UACC-257 melanoma
  GI50: 4.62 µM
  TGI: 27.1 µM
MALME-3M melanoma
  GI50: 2.67 µM
  TGI: 25.8 µM
SF-539 CNS
  GI50: 0.399 µM
  TGI: 3.64 µM
786-0 renal
  GI50: 0.668 µM
  TGI: 18.8 µM
HCT-15 colon
  GI50: 0.405 µM
  TGI: 15.7 µM
UO-31 renal
  GI50: 0.498 µM
  TGI: 15.9 µM
MDA-MB-435
  GI50: 0.139 µM
  TGI: 0.674 µM
OVCAR-8 ovarian
  GI50: 1.23 µM
  TGI: 20.1 µM
MDA-MB-231 breast
  GI50: 1.59 µM
  TGI: 15.8 µM
M14 melanoma
  GI50: 0.418 µM
  TGI: 13.1 µM
OVCAR-3 ovarian
  GI50: 0.277 µM
  TGI: 0.967 µM
SNB-19 CNS
  GI50: 0.534 µM
  TGI: 17.1 µM
A498 renal
  GI50: 0.273 µM
  TGI: 2.9 µM
SK-OV-3 ovarian
  GI50: 0.713 µM
  TGI: 39.7 µM
OVCAR-4 ovarian
  GI50: 1.16 µM
  TGI: 20.6 µM
U251 CNS
  GI50: 0.607 µM
  TGI: 16.3 µM
LOX IMVI melanoma
  GI50: 0.586 µM
  TGI: 19.3 µM
NCI-H460 lung
  GI50: 0.368 µM
  TGI: 11.6 µM
SF-268 CNS
  GI50: 1.26 µM
  TGI: 23.8 µM
CCRF-CEM leukemia
  GI50: 0.439 µM
  TGI: > 77.5 µM
K-562 leukemia
  GI50: 0.28 µM
  TGI: > 38.3 µM
COLO 205 colon
  GI50: 0.501 µM
  TGI: 3.36 µM
NCI-H226 lung
  GI50: 1.82 µM
  TGI: 19.5 µM
NCI-H23 lung
  GI50: 1.33 µM
  TGI: 19.6 µM
SK-MEL-28 melanoma
  GI50: 4.19 µM
  TGI: 21.5 µM
HT29 colon
  GI50: 0.403 µM
  TGI: 16.8 µM
SW-620 colon
  GI50: 0.336 µM
  TGI: 15.3 µM
OVCAR-5 ovarian
  GI50: 2.32 µM
  TGI: 17.3 µM
